Source: the supplement of paper PMC10307832

Experiments:
Test in all cases: relative viability (nuclei count vs DMSO), 5 days (fraction); higher = more cells survive
[1] = compound: Cc1ccc(C(=O)Nc2ccc(CN3CCN(C)CC3)c(C(F)(F)F)c2)cc1C#Cc1cnc2cccnn12 [Ponatinib] + CS(=O)(=O)CCNCc1ccc(-c2ccc3ncnc(Nc4ccc(OCc5cccc(F)c5)c(Cl)c4)c3c2)o1 [Lapatinib] (partner 2 µM)
How it was run: (§1)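 A single step with final 0.05% Triton X-100, 1% formaldehyde and 1 ug/ml Hoechst fixed the cells and stained nuclei 5 days after treatment. Lung cancer cell lines in 1536-well plates had been treated by pin tool the day after seeding with one drug alone or a fixed anchor-drug dose plus five library-drug doses (not always all listed) in √10 steps, and nuclei were counted on 4× images. Relative viability is the ratio of nuclei in treated wells to nuclei in vehicle wells, taken as the median of duplicate plates.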

[2] = compound: Cc1ccc(Nc2nccc(N(C)c3ccc4c(C)n(C)nc4c3)n2)cc1S(N)(=O)=O [Pazopanib] + Cc1nc(NC(=O)N2CCC[C@H]2C(N)=O)sc1-c1ccnc(C(C)(C)C(F)(F)F)c1 [Alpelisib] (partner 2 µM)
How it was run: as §1

[3] = compound: Cc1ccc(Nc2nccc(N(C)c3ccc4c(C)n(C)nc4c3)n2)cc1S(N)(=O)=O [Pazopanib] + O=C(c1cc(Cc2n[nH]c(=O)c3ccccc23)ccc1F)N1CCN(C(=O)C2CC2)CC1 [Olaparib] (partner 8 µM)
How it was run: as §1

[4] = compound: Cc1ccc(Nc2nccc(N(C)c3ccc4c(C)n(C)nc4c3)n2)cc1S(N)(=O)=O [Pazopanib] + Cc1cc(Nc2cc(N3CCN(C)CC3)nc(Sc3ccc(NC(=O)C4CC4)cc3)n2)n[nH]1 [Tozasertib] (partner 0.1 µM)
How it was run: as §1

Cell Line	relative viability ([1]; first compound 0.002 µM)	relative viability ([1]; first compound 0.006325 µM)	relative viability ([1]; first compound 0.06325 µM)	relative viability ([1]; first compound 0.2 µM)	relative viability ([2]; first compound 0.01 µM)	relative viability ([2]; first compound 0.03162 µM)	relative viability ([2]; first compound 0.1 µM)	relative viability ([2]; first compound 0.3162 µM)	relative viability ([2]; first compound 1 µM)	relative viability ([3]; first compound 0.01 µM)	relative viability ([3]; first compound 0.03162 µM)	relative viability ([3]; first compound 0.1 µM)	relative viability ([3]; first compound 0.3162 µM)	relative viability ([3]; first compound 1 µM)	relative viability ([4]; first compound 0.01 µM)	relative viability ([4]; first compound 0.03162 µM)	relative viability ([4]; first compound 0.1 µM)	relative viability ([4]; first compound 0.3162 µM)	relative viability ([4]; first compound 1 µM)
NCI-H1734	0.955	0.991	1.09	0.888	0.632	0.702	0.743	0.65	0.769	0.626	0.627	0.578	0.598	0.591	0.262	0.242	0.28	0.261	0.234
NCI-H1755	0.977	1.08	1.06	0.943	0.814	0.906	0.917	0.93	0.914	0.798	0.837	0.866	0.882	0.944	0.584	0.614	0.561	0.557	0.567
NCI-H1793	0.645	0.786	0.645	0.459	–	0.687	0.62	0.914	0.732	–	0.8	1.03	0.906	1.05	–	0.347	0.275	0.367	0.374
NCI-H1915	0.908	0.95	0.986	1.02	1.06	1.11	0.971	1.04	0.952	0.257	0.241	0.275	0.229	0.227	0.455	0.422	0.468	0.407	0.399
NCI-H1944	0.775	0.807	0.915	0.849	0.751	0.838	0.839	0.863	0.982	0.425	0.353	0.424	0.418	0.475	–	0.234	0.258	0.252	0.257
NCI-H1975	0.811	0.817	1.14	1.03	0.684	0.648	0.608	0.74	0.662	0.76	0.829	0.775	0.785	0.756	0.665	0.693	0.854	0.742	0.581
NCI-H1993	0.885	0.78	0.872	0.872	0.67	0.7	0.759	0.703	0.733	–	1.03	1.21	1.09	1.15	–	0.54	0.656	0.589	0.579
NCI-H2009	0.865	0.887	1.08	0.946	1.08	1.19	1.26	1.09	1	0.746	0.699	0.686	0.677	0.456	0.787	0.738	0.613	0.801	0.51
NCI-H2023	0.81	0.861	0.958	0.642	0.58	0.567	0.62	0.57	0.591	0.441	0.487	0.516	0.466	0.45	0.467	0.318	0.38	0.331	0.242
NCI-H2085	0.733	0.815	0.843	0.879	0.964	0.974	1.02	0.995	1.05	0.821	0.759	0.796	0.704	0.713	0.738	0.848	0.828	0.786	0.776
NCI-H2087	0.708	0.781	0.876	0.672	1.08	1.14	1.22	0.979	1.06	0.72	0.7	0.745	0.549	0.568	0.298	0.27	0.279	0.281	0.256
NCI-H2126	0.729	0.766	0.888	0.718	0.65	0.751	0.821	0.811	0.806	0.825	0.908	0.988	0.946	0.887	0.805	0.828	0.877	0.86	0.842
NCI-H2170	0.281	0.295	0.289	0.298	0.73	0.794	0.877	0.646	0.787	0.669	0.561	0.693	0.547	0.56	0.772	0.724	0.73	0.67	0.674
NCI-H2228	1.07	1.51	1.15	1.13	0.783	0.89	1.02	0.769	0.643	0.829	0.492	0.611	0.574	0.48	0.265	0.271	0.265	0.26	0.302
NCI-H2347	0.951	0.908	0.94	0.93	1.06	1.04	1.08	1.06	1.16	0.541	0.609	0.538	0.575	0.558	0.45	0.586	0.607	0.593	0.588
NCI-H2405	0.928	1.03	1.08	0.877	0.743	0.787	0.861	1.09	0.838	0.824	0.89	0.958	0.907	0.983	0.77	0.777	0.79	0.75	0.76
NCI-H3122	0.993	1	1.01	1.07	0.733	0.734	0.783	0.884	0.736	0.7	0.572	0.607	0.636	0.599	0.408	0.382	0.435	0.394	0.426
